How the values were obtained:
Flavopiridol = compound: CN1CC[C@H](c2c(O)cc(O)c3c(=O)cc(-c4ccccc4Cl)oc23)[C@H](O)C1 [Flavopiridol]; assay: increase in dead-cell fraction, 72 h; higher = more death;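 further: breast cancer cell lines in 384-well plates, stained with Hoechst plus LIVE/DEAD far red dye and imaged, cells above an LDR intensity threshold counted dead, Hoechst-negative corpses included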
[1] = compound: CCc1cnn2c(NCc3ccc[n+]([O-])c3)cc(N3CCCC[C@H]3CCO)nc12; assay: as above
[2] = compound: CCN1CCN(Cc2ccc(Nc3ncc(F)c(-c4cc(F)c5nc(C)n(C(C)C)c5c4)n3)nc2)CC1; assay: as above
BSJ-03-123 = compound: CC(=O)c1c(C)c2cnc(Nc3ccc(N4CCN(CCOCCOCCOCCNC(=O)COc5cccc6c5C(=O)N(C5CCC(=O)NC5=O)C6=O)CC4)cn3)nc2n(C2CCCC2)c1=O [BSJ-03-123]; assay: as above
THZ1 = compound: CN(C)C/C=C/C(=O)Nc1ccc(C(=O)Nc2cccc(Nc3ncc(Cl)c(-c4c[nH]c5ccccc45)n3)c2)cc1 [THZ1]; assay: as above
[3] = compound: CC(=O)c1c(C)c2cnc(Nc3ccc(N4CCNCC4)cn3)nc2n(C2CCCC2)c1=O; assay: as above
LEE011/Ribociclib = compound: CN(C)C(=O)c1cc2cnc(Nc3ccc(N4CCNCC4)cn3)nc2n1C1CCCC1 [LEE011/Ribociclib]; assay: as above
Neratinib/HKI272 = compound: CCOc1cc2ncc(C#N)c(Nc3ccc(OCc4ccccn4)c(Cl)c3)c2cc1NC(=O)/C=C/CN(C)C [Neratinib/HKI272]; assay: as above
AZD6738 = compound: C[C@@H]1COCCN1c1cc(C2([S@](C)(=N)=O)CC2)nc(-c2cc[nH]c3nccc2-3)n1 [AZD6738]
Tivantinib/ARQ197 = compound: O=C1NC(=O)[C@@H](c2cn3c4c(cccc24)CCC3)[C@@H]1c1c[nH]c2ccccc12 [Tivantinib/ARQ197]
[4] = compound: CCC1=CN=CN=C1N2CCN(CC2)CC3=NC4=C(N3)C=C(C=C4)C(F)(F)F
AZD2014 = compound: CNC(=O)c1cccc(-c2ccc3c(N4CCOC[C@@H]4C)nc(N4CCOC[C@@H]4C)nc3n2)c1 [AZD2014]
Vorinostat = compound: O=C(CCCCCCC(=O)Nc1ccccc1)NO [Vorinostat]
Ipatasertib/GDC0068 = compound: CC(C)NC[C@@H](C(=O)N1CCN(c2ncnc3c2[C@H](C)C[C@H]3O)CC1)c1ccc(Cl)cc1 [Ipatasertib/GDC0068]
[5] = compound: CCN1CCN(Cc2ccc(Nc3ncc(F)c(-c4cc(F)c5nc(C)n(C(C)C)c5c4)n3)nc2)CC1
[6] = compound: CC(=O)Nc1cccc(-n2c(=O)n(C3CC3)c(=O)c3c(Nc4ccc(I)cc4F)n(C)c(=O)c(C)c32)c1
[7] = compound: COc1ccc2c(c1)[C@]1(C[C@H]1c1ccc3c(/C=C/c4ccc(CN5C[C@@H](C)O[C@@H](C)C5)cc4)n[nH]c3c1)C(=O)N2
AZD7762 = compound: NC(=O)Nc1cc(-c2cccc(F)c2)sc1C(=O)N[C@H]1CCCNC1 [AZD7762]
BSJ-01-175 = compound: CN(C)C/C=C/C(=O)Nc1ccc(O[C@@H]2CCC[C@@H](Nc3ncc(Cl)c(-c4c[nH]c5ccccc45)n3)C2)cc1 [BSJ-01-175]
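Wherever GR50, 72 h is given: breast cancer and non-malignant breast epithelial cell lines, Deep Dye Drop or Dye Drop imaging, nine half-log doses, GR normalized to time-zero plates and DMSO-only controls.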

Cell Line: UACC812
- increase in dead-cell fraction (Flavopiridol; 0.0001 µM): 0.0015
- increase in dead-cell fraction (Flavopiridol; 0.0003162 µM): -0.0016
- increase in dead-cell fraction (Flavopiridol; 0.001 µM): 0.0074
- increase in dead-cell fraction (Flavopiridol; 0.003162 µM): 0.0022
- increase in dead-cell fraction (Flavopiridol; 0.01 µM): -0.0031
- increase in dead-cell fraction (Flavopiridol; 0.03162 µM): -0.0033
- increase in dead-cell fraction (Flavopiridol; 0.1 µM): 0.0023
- increase in dead-cell fraction (Flavopiridol; 0.3162 µM): 0.0692
- increase in dead-cell fraction (Flavopiridol; 1 µM): 0.403
- increase in dead-cell fraction ([1]; 0.0001 µM): -0.0048
- increase in dead-cell fraction ([1]; 0.0003162 µM): -0.0023
- increase in dead-cell fraction ([1]; 0.001 µM): -0.0065
- increase in dead-cell fraction ([1]; 0.003162 µM): -0.0073
- increase in dead-cell fraction ([1]; 0.01 µM): -0.007
- increase in dead-cell fraction ([1]; 0.03162 µM): 0.0324
- increase in dead-cell fraction ([1]; 0.1 µM): 0.478
- increase in dead-cell fraction ([1]; 0.3162 µM): 0.529
- increase in dead-cell fraction ([1]; 1 µM): 0.523
- increase in dead-cell fraction ([2]; 0.001 µM): -0.0019
- increase in dead-cell fraction ([2]; 0.003162 µM): 0.0028
- increase in dead-cell fraction ([2]; 0.01 µM): 0.0044
- increase in dead-cell fraction ([2]; 0.03162 µM): 0.0186
- increase in dead-cell fraction ([2]; 0.1 µM): 0.0202
- increase in dead-cell fraction ([2]; 0.3162 µM): 0.0231
- increase in dead-cell fraction ([2]; 1 µM): 0.0272
- increase in dead-cell fraction ([2]; 3.162 µM): 0.0144
- increase in dead-cell fraction ([2]; 10 µM): 0.073
- increase in dead-cell fraction (BSJ-03-123; 0.001 µM): 0.0002
- increase in dead-cell fraction (BSJ-03-123; 0.003162 µM): 0.0007
- increase in dead-cell fraction (BSJ-03-123; 0.01 µM): 0.0021
- increase in dead-cell fraction (BSJ-03-123; 0.03162 µM): 0.0004
- increase in dead-cell fraction (BSJ-03-123; 0.1 µM): 0.0012
- increase in dead-cell fraction (BSJ-03-123; 0.3162 µM): -0.0006
- increase in dead-cell fraction (BSJ-03-123; 1 µM): -0.0002
- increase in dead-cell fraction (BSJ-03-123; 3.162 µM): 0.0096
- increase in dead-cell fraction (BSJ-03-123; 10 µM): 0.0406
- increase in dead-cell fraction (THZ1; 0.0001 µM): -0.003
- increase in dead-cell fraction (THZ1; 0.0003162 µM): 0.0027
- increase in dead-cell fraction (THZ1; 0.001 µM): -0.0004
- increase in dead-cell fraction (THZ1; 0.003162 µM): 0.0019
- increase in dead-cell fraction (THZ1; 0.01 µM): 0.0019
- increase in dead-cell fraction (THZ1; 0.03162 µM): -0.0013
- increase in dead-cell fraction (THZ1; 0.1 µM): -0.0018
- increase in dead-cell fraction (THZ1; 0.3162 µM): 0.0001
- increase in dead-cell fraction (THZ1; 1 µM): 0.0639
- increase in dead-cell fraction ([3]; 0.0003162 µM): -0.0049
- increase in dead-cell fraction ([3]; 0.001 µM): 0.0002
- increase in dead-cell fraction ([3]; 0.003162 µM): -0.0042
- increase in dead-cell fraction ([3]; 0.01 µM): 0.005
- increase in dead-cell fraction ([3]; 0.03162 µM): 0.0019
- increase in dead-cell fraction ([3]; 0.1 µM): 0.0099
- increase in dead-cell fraction ([3]; 0.3162 µM): 0.0073
- increase in dead-cell fraction ([3]; 1 µM): 0.0136
- increase in dead-cell fraction ([3]; 3.162 µM): 0.0146
- increase in dead-cell fraction (LEE011/Ribociclib; 0.001 µM): 0.0064
- increase in dead-cell fraction (LEE011/Ribociclib; 0.003162 µM): 0.0022
- increase in dead-cell fraction (LEE011/Ribociclib; 0.01 µM): 0.0036
- increase in dead-cell fraction (LEE011/Ribociclib; 0.03162 µM): 0.0049
- increase in dead-cell fraction (LEE011/Ribociclib; 0.1 µM): 0.0102
- increase in dead-cell fraction (LEE011/Ribociclib; 0.3162 µM): 0.0156
- increase in dead-cell fraction (LEE011/Ribociclib; 1 µM): 0.0075
- increase in dead-cell fraction (LEE011/Ribociclib; 3.162 µM): 0.017
- increase in dead-cell fraction (LEE011/Ribociclib; 10 µM): 0.0125
- increase in dead-cell fraction (Neratinib/HKI272; 0.0003162 µM): -0.0016
- increase in dead-cell fraction (Neratinib/HKI272; 0.001 µM): 0.0009
- increase in dead-cell fraction (Neratinib/HKI272; 0.003162 µM): 0.0017
- increase in dead-cell fraction (Neratinib/HKI272; 0.01 µM): 0.0044
- increase in dead-cell fraction (Neratinib/HKI272; 0.03162 µM): 0.0198
- increase in dead-cell fraction (Neratinib/HKI272; 0.1 µM): 0.0311
- increase in dead-cell fraction (Neratinib/HKI272; 0.3162 µM): 0.0666
- increase in dead-cell fraction (Neratinib/HKI272; 1 µM): 0.0547
- increase in dead-cell fraction (Neratinib/HKI272; 3.162 µM): 0.114
- GR50, 72 h (AZD6738): 5.82 µM
- GR50, 72 h (Tivantinib/ARQ197): 0.175 µM
- GR50, 72 h [4]: 2.01 µM
- GR50, 72 h (AZD2014): < 0.001 µM
- GR50, 72 h (Vorinostat): 1.12 µM
- GR50, 72 h (Ipatasertib/GDC0068): 1.02 µM
- GR50, 72 h [5]: 0.00485 µM
- GR50, 72 h [6]: 0.00179 µM
- GR50, 72 h [7]: 0.0127 µM
- GR50, 72 h (AZD7762): 0.00748 µM
- GR50, 72 h (BSJ-01-175): 0.332 µM
